Results published in EP0373216A1, “CEPHALOSPORIN COMPOUNDS OR THEIR SALTS, PROCESS FOR THEIR PREPARATION, AND PARMACEUTICAL COMPOSITIONS” (TEIJIN LIMITED, priority 1987, dated 1988).
≈ marks a conversion by molar mass, not a printed value. Read-outs that look alike come from different tables or passages of the source.

What was measured:
Experiment in all cases: In vitro antibacterial activity, agar disc dilution method
Assay type in all cases: cell-based
S. typhic 901 = settings: Mueller Hinton agar, 10^6/ml, 37°C for 16 hours, read-out: minimum growth inhibitory concentration (MIC)
Description: (§1) An in vitro antibacterial activity was measured by an agar disc dilution method.
(§2) Varied test bacteria were cultivated overnight in triptophane-soybroth. A Mueller Hinton agar containing the compound of this invention in varied concentrations was streaked with one platinum loopful of each of the bacteria (number of living cells 10^6/ml).

S. aureus Terajima = settings: Staphylococcus aureus, read-out: minimum growth inhibitory concentration (MIC)
Description: as §1, §2

S. pyogenes Cook = settings: Streptococcus pyogenes, read-out: minimum growth inhibitory concentration (MIC)
Description: as §1, §2

S. marcescens I AM 1184 = settings: Serratia marcescens, read-out: minimum growth inhibitory concentration (MIC)
Description: as §1, §2

P. vulgalis OX-19 = settings: read-out: minimum growth inhibitory concentration (MIC)
Description: as §1, §2

E. cloacae 963 = settings: read-out: minimum growth inhibitory concentration (MIC)
Description: as §1, §2

P. morganii IFO 3445 = settings: Morganella morganii, read-out: minimum growth inhibitory concentration (MIC)
Description: as §1, §2

M. euteus ATCC 9341 = settings: read-out: minimum growth inhibitory concentration (MIC)
Description: as §1, §2

E. coli K12C600 = settings: Escherichia coli, read-out: minimum growth inhibitory concentration (MIC)
Description: as §1, §2

B. subtilis ATCC 6633 = settings: Bacillus subtilis, read-out: minimum growth inhibitory concentration (MIC)
Description: as §1, §2

K. pneumoniae PC I 602 = settings: Klebsiella pneumoniae, read-out: minimum growth inhibitory concentration (MIC)
Description: as §1, §2

P. aeruginosa NCTC 1049 = settings: Pseudomonas aeruginosa, read-out: minimum growth inhibitory concentration (MIC)
Description: as §1, §2

P. rettgeric IFO3850 = settings: read-out: minimum growth inhibitory concentration (MIC)
Description: as §1, §2

S. enteritidis G14 = settings: Salmonella enterica, read-out: minimum growth inhibitory concentration (MIC)
Description: as §1, §2

[1] = S. aureus Terajima, Mueller Hinton agar, 10^6/ml, 37°C for 16 hours
[2] = S. pyogenes Cook, Mueller Hinton agar, 10^6/ml, 37°C for 16 hours
[3] = IAM1184, S. marcescens I AM 1184, Mueller Hinton agar, 10^6/ml, 37°C for 16 hours
[4] = P. vulgalis OX-19, Mueller Hinton agar, 10^6/ml, 37°C for 16 hours
[5] = Enterobacter cloacae, E. cloacae 963, Mueller Hinton agar, 10^6/ml, 37°C for 16 hours
[6] = IFO3445, P. morganii IFO 3445, Mueller Hinton agar, 10^6/ml, 37°C for 16 hours
[7] = M. euteus ATCC 9341, Mueller Hinton agar, 10^6/ml, 37°C for 16 hours
[8] = E. coli K12C600, Mueller Hinton agar, 10^6/ml, 37°C for 16 hours
[9] = ATCC6633, B. subtilis ATCC 6633, Mueller Hinton agar, 10^6/ml, 37°C for 16 hours
[10] = PCI602, K. pneumoniae PC I 602, Mueller Hinton agar, 10^6/ml, 37°C for 16 hours
[11] = NCTC1049, P. aeruginosa NCTC 1049, Mueller Hinton agar, 10^6/ml, 37°C for 16 hours
[12] = P. rettgeric IFO3850, Mueller Hinton agar, 10^6/ml, 37°C for 16 hours
[13] = S. enteritidis G14, Mueller Hinton agar, 10^6/ml, 37°C for 16 hours

SMILES | MIC (S. typhic 901) | MIC (S. aureus Terajima; [1]) | MIC (S. pyogenes Cook; [2]) | MIC (S. marcescens I AM 1184; [3]) | MIC (P. vulgalis OX-19; [4]) | MIC (E. cloacae 963; [5]) | MIC (P. morganii IFO 3445; [6]) | MIC (M. euteus ATCC 9341; [7]) | MIC (E. coli K12C600; [8]) | MIC (B. subtilis ATCC 6633; [9]) | MIC (K. pneumoniae PC I 602; [10]) | MIC (P. aeruginosa NCTC 1049; [11]) | MIC (P. rettgeric IFO3850; [12]) | MIC (S. enteritidis G14; [13]) | further results
Nc1nc(/C(=N/Oc2cccc(C(=O)O)c2)C(=O)N[C@@H]2C(=O)N3C(C(=O)[O-])=C(C[n+]4ccc5cc(O)c(O)cc5c4)CS[C@H]23)cs1 [Compound VIII] | 0.03 µg/mL (≈ 0.0453 µM) | 3.1 µg/mL (≈ 4.68 µM) | 0.8 µg/mL (≈ 1.21 µM) | 0.1 µg/mL (≈ 0.151 µM) | 0.02 µg/mL (≈ 0.0302 µM) | 0.1 µg/mL (≈ 0.151 µM) | 0.03 µg/mL (≈ 0.0453 µM) | 1.6 µg/mL (≈ 2.41 µM) | 0.05 µg/mL (≈ 0.0755 µM) | 0.3 µg/mL (≈ 0.453 µM) | 0.03 µg/mL (≈ 0.0453 µM) | 0.2 µg/mL (≈ 0.302 µM) | 0.02 µg/mL (≈ 0.0302 µM) | 0.03 µg/mL (≈ 0.0453 µM) | –
Nc1nc(/C(=N/Oc2ccccc2)C(=O)N[C@@H]2C(=O)N3C(C(=O)[O-])=C(C[n+]4ccc5cc(O)c(O)cc5c4)CS[C@H]23)cs1 [Compound I, (6R,7R)-7-[(Z)-2-(2-amino-1,3-thiazol-4-yl)-2-phenoxy-iminoacetamide]-3-(6,7-dihydroxy-2-isoquinolinium)methyl-3-cephem-4-carboxylate] | < 0.01 µg/mL | 0.8 µg/mL (≈ 1.29 µM) | 0.2 µg/mL (≈ 0.323 µM) | < 0.01 µg/mL | < 0.01 µg/mL | < 0.01 µg/mL | < 0.01 µg/mL | 0.1 µg/mL (≈ 0.162 µM) | < 0.01 µg/mL | 0.1 µg/mL (≈ 0.162 µM) | < 0.01 µg/mL | 0.1 µg/mL (≈ 0.162 µM) | < 0.01 µg/mL | < 0.01 µg/mL | –
Nc1nc(/C(=N/Oc2ccccc2Cl)C(=O)N[C@@H]2C(=O)N3C(C(=O)[O-])=C(C[n+]4ccc5cc(O)c(O)cc5c4)CS[C@H]23)cs1 [Compound II, (6R,7R)-7-[(Z)-2-(2-amino-1,3-thiazol-4-yl)-2-(o-chlorophenoxyimino)-acetamide]-3-(6,7-dihydroxy-2-isoquinolinium)methyl-3-cephem-4-carboxylate] | < 0.01 µg/mL | 0.2 µg/mL (≈ 0.306 µM) | 0.2 µg/mL (≈ 0.306 µM) | < 0.01 µg/mL | < 0.01 µg/mL | < 0.01 µg/mL | < 0.01 µg/mL | 0.8 µg/mL (≈ 1.22 µM) | < 0.01 µg/mL | 1.6 µg/mL (≈ 2.45 µM) | < 0.01 µg/mL | 0.8 µg/mL (≈ 1.22 µM) | < 0.01 µg/mL | < 0.01 µg/mL | –
Nc1nc(/C(=N/Oc2ccccc2)C(=O)N[C@@H]2C(=O)N3C(C(=O)[O-])=C(C[n+]4ccc5cc(O)c(O)cc5c4)CS[C@H]23)ns1 [Compound XI, (6R,7R)-[(Z)-2(5-amino-1,2,4-thiadiazol-3-yl)-2-phenoxyiminoacetamide]-3-(6,7-dihydroxy-2-isoquinolinium)methyl-3-cephem-carboxylate] | < 0.01 µg/mL | 0.2 µg/mL (≈ 0.323 µM) | 0.05 µg/mL (≈ 0.0807 µM) | < 0.01 µg/mL | < 0.01 µg/mL | < 0.01 µg/mL | < 0.01 µg/mL | 0.01 µg/mL (≈ 0.0161 µM) | 0.01 µg/mL (≈ 0.0161 µM) | 0.4 µg/mL (≈ 0.646 µM) | < 0.01 µg/mL | 0.2 µg/mL (≈ 0.323 µM) | < 0.01 µg/mL | < 0.01 µg/mL | –
Nc1nc(/C(=N/Oc2ccccc2)C(=O)N[C@@H]2C(=O)N3C(C(=O)[O-])=C(C[n+]4cc(C(=O)O)c5cc(O)c(O)cc5c4)CS[C@H]23)cs1 [Compound VI, (6R,7R)-7-[(Z)-2-(2-amino-1,3-thiazol-4-yl)-2-phenoxyiminoacetamide]-3-(4-carboxy-6,7-dihydroxy-2-isoquinolinium)methyl-3-cephem-4-carboxylate] | < 0.01 µg/mL | 3.1 µg/mL (≈ 4.68 µM) | 0.8 µg/mL (≈ 1.21 µM) | < 0.01 µg/mL | < 0.01 µg/mL | 0.05 µg/mL (≈ 0.0755 µM) | 0.02 µg/mL (≈ 0.0302 µM) | 0.8 µg/mL (≈ 1.21 µM) | 0.02 µg/mL (≈ 0.0302 µM) | 1.6 µg/mL (≈ 2.41 µM) | 0.02 µg/mL (≈ 0.0302 µM) | 3.1 µg/mL (≈ 4.68 µM) | 0.02 µg/mL (≈ 0.0302 µM) | < 0.01 µg/mL | –
CC(C)(O/N=C(\C(=O)N[C@@H]1C(=O)N2C(C(=O)[O-])=C(C[n+]3ccccc3)CS[C@H]12)c1csc(N)n1)C(=O)O [CAZ, Ceftazidime, reference compound] | 0.1 µg/mL (≈ 0.183 µM) | – | – | – | – | – | – | – | – | – | – | – | – | – | MIC (S. aureus Terajima; 16 h): 3.1 µg/mL (≈ 5.67 µM); MIC (S. pyogenes Cook; 16 h): 1.6 µg/mL (≈ 2.93 µM); MIC (S. marcescens I AM 1184; IAM1184, 16 h): 0.03 µg/mL (≈ 0.0549 µM); MIC (P. vulgalis OX-19; 16 h): 0.01 µg/mL (≈ 0.0183 µM); MIC (E. cloacae 963; Enterobacter cloacae, 963, 16 h): 0.1 µg/mL (≈ 0.183 µM); MIC (P. morganii IFO 3445; IFO3445, 16 h): 0.01 µg/mL (≈ 0.0183 µM); MIC (M. euteus ATCC 9341; 16 h): 1.6 µg/mL (≈ 2.93 µM); MIC (E. coli K12C600; K12C600, 16 h): 0.2 µg/mL (≈ 0.366 µM); MIC (B. subtilis ATCC 6633; ATCC6633, 16 h): 3.1 µg/mL (≈ 5.67 µM); MIC (K. pneumoniae PC I 602; PCI602, 16 h): 0.1 µg/mL (≈ 0.183 µM); MIC (P. aeruginosa NCTC 1049; NCTC1049, 16 h): 0.8 µg/mL (≈ 1.46 µM); MIC (P. rettgeric IFO3850; 16 h): 0.01 µg/mL (≈ 0.0183 µM); MIC (S. enteritidis G14; ENTERITIDIS, 16 h): 0.1 µg/mL (≈ 0.183 µM)
CC(=O)Oc1cc2cc[n+](CC3=C(C(=O)[O-])N4C(=O)[C@@H](NC(=O)/C(=N\Oc5ccccc5)c5csc(N)n5)[C@H]4SC3)cc2cc1OC(C)=O [Compound IX, (6R,7R)-7-[(Z)-2-(2-amino-1,3-thiazol-4-yl)-2-phenoxyiminoacetamide]-3-(6,7-diacetoxy-2-isoquinolinium)methyl-3-cephem-4-carboxylate] | < 0.01 µg/mL | 1.6 µg/mL (≈ 2.28 µM) | 0.4 µg/mL (≈ 0.569 µM) | < 0.01 µg/mL | < 0.01 µg/mL | 0.02 µg/mL (≈ 0.0285 µM) | < 0.01 µg/mL | 1.6 µg/mL (≈ 2.28 µM) | 0.01 µg/mL (≈ 0.0142 µM) | 0.8 µg/mL (≈ 1.14 µM) | < 0.01 µg/mL | 0.1 µg/mL (≈ 0.142 µM) | < 0.01 µg/mL | 0.02 µg/mL (≈ 0.0285 µM) | –
Nc1nc(/C(=N/Oc2ccccc2)C(=O)N[C@@H]2C(=O)N3C(C(=O)[O-])=C(C[n+]4cc(C(=O)O)c5cc(O)c(O)cc5c4Cl)CS[C@H]23)cs1 [Compound VII, (6R,7R)-7-[(Z)-2-(2-amino-1,3-thiazol-4-yl)-2-phenoxyiminoacetamide]-3-(l-chloro-4-carboxy-6,7-dihydroxy-2-isoquinolinium)methyl-3-cephem-4-carboxylate] | – | 3.1 µg/mL (≈ 4.45 µM) | 0.4 µg/mL (≈ 0.574 µM) | 0.03 µg/mL (≈ 0.043 µM) | 0.02 µg/mL (≈ 0.0287 µM) | 0.1 µg/mL (≈ 0.143 µM) | 0.03 µg/mL (≈ 0.043 µM) | 0.8 µg/mL (≈ 1.15 µM) | 0.03 µg/mL (≈ 0.043 µM) | 1.6 µg/mL (≈ 2.3 µM) | 0.03 µg/mL (≈ 0.043 µM) | 1.6 µg/mL (≈ 2.3 µM) | 0.03 µg/mL (≈ 0.043 µM) | 0.02 µg/mL (≈ 0.0287 µM) | –
